Reference: US20040204383A1, “Lysophosphatidic acid analogs and inhibition of neointima formation” (priority 2003, published 2004)
“Also recorded” adds a separate entry of the source. One block for each molecule: values may come before it.

Assays:
[1] = target: T1, PPARγ (Homo sapiens, UniProt P37231); test: PPRE-Acox-Rluc reporter gene assay in CV-1 cells transfected with PPARγ; format: cell-based; conditions: for activation of the PPRE-Acox-Rluc reporter: 10 μM, 20 h, CV-1 cells (FIG. 6C)
T1 construct: expressed in transfected cells; host or cells: CV-1 cells, transient transfection with LipofectAMINE 2000
T1 sequence (P37231 1-505): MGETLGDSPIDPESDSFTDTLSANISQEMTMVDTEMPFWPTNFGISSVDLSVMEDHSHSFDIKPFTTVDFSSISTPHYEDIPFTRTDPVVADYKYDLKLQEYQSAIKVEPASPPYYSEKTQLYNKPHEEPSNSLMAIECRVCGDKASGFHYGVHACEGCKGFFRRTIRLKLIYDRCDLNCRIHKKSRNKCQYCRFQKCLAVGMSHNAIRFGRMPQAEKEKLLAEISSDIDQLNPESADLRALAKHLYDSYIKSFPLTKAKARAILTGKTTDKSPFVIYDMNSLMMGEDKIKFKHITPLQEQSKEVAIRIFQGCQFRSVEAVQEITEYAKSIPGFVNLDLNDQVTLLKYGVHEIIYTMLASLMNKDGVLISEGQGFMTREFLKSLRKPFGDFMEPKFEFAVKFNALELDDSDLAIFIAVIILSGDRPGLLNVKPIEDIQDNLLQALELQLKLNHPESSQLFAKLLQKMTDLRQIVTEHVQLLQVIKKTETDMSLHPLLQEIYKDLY
T1 sequence (P19793 1-462 partner): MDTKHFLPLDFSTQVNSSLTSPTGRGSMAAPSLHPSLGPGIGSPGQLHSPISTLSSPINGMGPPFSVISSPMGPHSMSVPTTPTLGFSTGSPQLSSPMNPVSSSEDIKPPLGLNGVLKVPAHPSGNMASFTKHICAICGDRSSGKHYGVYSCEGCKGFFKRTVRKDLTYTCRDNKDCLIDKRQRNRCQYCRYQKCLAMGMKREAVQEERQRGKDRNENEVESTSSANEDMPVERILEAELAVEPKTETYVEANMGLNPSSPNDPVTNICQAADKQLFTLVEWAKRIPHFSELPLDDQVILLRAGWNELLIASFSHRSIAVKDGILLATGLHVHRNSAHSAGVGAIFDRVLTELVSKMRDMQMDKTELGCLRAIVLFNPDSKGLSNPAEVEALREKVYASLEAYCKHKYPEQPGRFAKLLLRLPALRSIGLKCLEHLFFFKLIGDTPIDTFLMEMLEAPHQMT
Description: CV-1 cells were plated in 96-well plates (5×10^3 cells per well) in DME supplemented with 10% FBS. […] Twenty four hours after transfection, cells were treated with 1% FBS-supplemented OptiMEMI™ (Invitrogen) containing DMSO or test compound (10 μM) in DMSO for 20 h. Luciferase and β-galactosidase activities were measured with the Steady-Glo® Luciferase Assay System (Promega) and the Galacto-Light Plus™ System (Applied Biosystems), respectively. Samples were run in quadruplicate, and the mean±SE were calculated. Data are representative of at least three independent transfections. Student's t test was used for null hypothesis testing, and P<0.05 was considered significant.

[2] = system: rat carotid arteries; test: Induction of neointima formation in rat carotid artery by topical application; format: in vivo
Source text: Briefly, the right carotid artery of anesthetized adult male Sprague-Dawley rats (250-300 g) was surgically exposed. The caudal origin of the common carotid artery was ligated using a vessel clip, followed by exposure and ligation of the internal carotid artery above the bifurcation. The external carotid artery was exposed, and a polyethylene catheter was inserted such that it never reached the common carotid artery, thereby avoiding mechanical injury to the vessel. The clip occluding the common carotid artery was temporarily released, and the vessel was rinsed with a retrograde injection of 500 μl physiological saline to remove residual blood. The vessel was again clipped, and 100 μl of treatment solution was injected. After 60 min of incubation, the cannula was withdrawn, the external carotid artery was ligated, and blood flow was restored. Animals were allowed to recover and were killed 7-56 d later by intracardiac perfusion of 10% buffered formaldehyde (pH 7.4). The common carotid artery from the […] to the bifurcation was dissected, embedded in paraffin, and processed for histological analysis. Five μm-thick sections were cut and stained with hematoxylin and eosin or Masson's trichrome stain. Intima to media ratios were quantified using an image analysis system (Scion Image CMS-800).

[3] = system: CD36(−273)-Rluc reporter gene; test: CD36(−273)-Rluc reporter gene (with PPRE) in CV-1 cells; format: cell-based; conditions: 10 μM, CV-1 cells (FIG. 7E)
Description: Therefore, the investigators compared the unique in vivo neointima-eliciting lysophosphatidic acid structure-activity relationship with that of PPARγ using an in vitro assay that utilizes an acyl-coenzyme A oxidase-luciferase (PPRE-Acox-Rluc) reporter gene construct containing a peroxisome proliferator-activated receptor response element. CV-1 cells were plated in 96-well plates (5×10^3 cells per well) in DME supplemented with 10% FBS. The next day, the cells were transiently transfected with 125 ng of pGL3-PPRE-acyl-CoA oxidase (Acox)-renilla luciferase), or 125 ng pGL3-CD36(−273), or pGL3-CD36(−261), 62.5 ng of pcDNAI-PPARγ, and 12.5 ng of pSV-β-galactosidase (Promega) using LipofectAMINE™ 2000 (Invitrogen). Twenty four hours after transfection, cells were treated with 1% FBS-supplemented OptiMEMI™ (Invitrogen) containing DMSO or test compound (10 μM) in DMSO for 20 h. Luciferase and β-galactosidase activities were measured with the Steady-Glo® Luciferase Assay System (Promega) and the Galacto-Light Plus™ System (Applied Biosystems), respectively. Samples were run in quadruplicate, and the mean±SE were calculated. Data are representative of at least three independent transfections. Student's t test was used for null hypothesis testing, and P<0.05 was considered significant.

[4] = system: vascular smooth muscle cells; test: Phenotypic modulation and dedifferentiation of cultured VSMCs (morphology, hCAD mRNA); format: cell-based, rat
Description: Expression of lysophosphatidic acid-specific G protein-coupled plasma membrane receptors in rat carotid arteries was examined by RT-PCR as described earlier by Wang et al. (2002). To quantify heavy caldesmon mRNA, quantitative PCR was performed applying the real-time SYBR Green PCR method using a Sequence Detection System Model 7700 (Applied Biosystems) instrument. Rat heavy caldesmon and GAPDH (reference control mRNA)-specific primers were designed with Primer Express Software (Applied Biosystems), and forward and reverse primers were as follows: 5′-[…]-3′ (SEQ ID NO:1) and 5′-[…]-3′ (SEQ ID NO:2) for heavy caldesmon; 5′-[…]-3′ (SEQ ID NO:3) and 5′-[…]-3′ (SEQ ID NO:4) for GAPDH. Amplification reaction was performed with SYBR Green PCR Master Mix (Applied Biosystems) following the manufacturer's protocol. mRNA abundance calculation was based on Ct values as described previously (Wang et al., 2002). The expression level of heavy caldesmon mRNA was normalized to GAPDH mRNA. Each PCR reaction was performed at least three times, and the result was expressed as mean±SEM. Statistical comparison of mRNA expression was evaluated by ANOVA, and P<0.05 was considered statistically significant.
It has been reported that unsaturated lysophosphatidic acid species induced phenotypic modulation of cultured vascular smooth muscle cells (VSMCs). Because the neointimal response and PPARγ display a similar selectivity for unsaturated lysophosphatidic acid, that activation of PPARγ plays a role in the phenotypic dedifferentiation is hypothesized herein. This hypothesis was tested in a culture system in which IGF-1 maintains the differentiated spindle shape of vascular smooth muscle cells as indicated by high levels of heavy caldesmon (hCAD) mRNA expression.

[5] = 10 μM, rat carotid artery model (FIG. 3C)
[6] = 10 ng/ml, 2-wk period (FIG. 5B)

activation of the PPRE-Acox-Rluc reporter [1]: inactive
Molecule: 2,3-cyclic phosphatidic acid [cPA 18:1]
neointima formation [2, 5]: did not elicit detectable neointima
neointima formation ([2]; 10 μM, rat carotid artery model (FIG. 3C), listed as cPA): inactive

Molecule: 3-O-octadecenyl-glycerophosphate [3AGP]
neointima formation [2, 5]: modestly effective

Molecule: CCCCCCCCC=CCCCCCCCCOCC(O)COP(=O)(O)O (centres unmarked) [1AGP, 1-octadecenyl-glycerophosphate]
neointima formation [2, 5]: highly effective
stimulation of CD36(−273)-Rluc reporter gene [3]: higher stimulation

Molecule: CCCCCCCCCCCCCCCCOCC(COP(=O)([O-])OCC[N+](C)(C)C)OC(=O)CCCCCCCC(=O)O (centres unmarked) [AZ-PC, 1-O-hexadecyl-2-azaleoyl-phosphatidylcholine]
neointima formation ([2]; after 2 weeks (FIG. 6B)): caused neointima formation

inhibition of lysophosphatidic acid 20:4-induced PPRE-Acox-Rluc reporter gene expression ([1]; 10 μM (FIG. 6D)): abolished
Molecule: O=C(Nc1ccccc1)c1cc([N+](=O)[O-])ccc1Cl [GW9662]
inhibition of neointima formation elicited by lysophosphatidic acid 20:4 ([2]; 5 μM 30 min before and coapplied with 2.5 μM LPA 20:4): completely abolished neointima formation; also recorded: inhibited
effect on vessels from animals treated with SOV-PC and saturated lysophosphatidic acid species ([2]; FIG. 6B): had no effect
inhibition of AZ-PC-induced neointima formation ([2]; FIG. 6B): inhibited by GW9662
inhibition of neointima formation in response to LPA 18:2 ([2]; GW9662 pretreatment (FIG. 6B)): inhibited
inhibition of neointima formation in response to minimally oxidized LDL ([2]; GW9662 pretreatment (FIG. 6B)): inhibited
inhibition of Rosi-induced lesion formation ([2]; GW9662 pretreatment and coapplication (FIG. 6B)): fully blocked
effect on LPA 20:4- and Rosi-induced flattened morphology of VSMCs ([4]; 200 nM GW9662): reversed this effect
effect on hCAD mRNA expression ([4]; 200 nM pretreatment, quantitative RT-PCR (FIG. 8I)): caused a significant increase in hCAD mRNA expression
effect on morphology of IGF-1- and LPA 20:0-treated VSMC cultures ([4]; 200 nM, 30 min pretreatment): did not affect the spindle-like morphology

Molecule: CCCCCCCCCCCCCCCCCC(=O)OCC(O)COP(=O)(O)O (centres unmarked) [LPA 18:0]
neointima formation [2, 5]: did not elicit detectable neointima

activation of the PPRE-Acox-Rluc reporter [1]: inactive
Molecule: CCCCCCCCCCCCC/C=C/[C@@H](O)[C@@H](N)COP(=O)(O)O [S1P, sphingosine 1-phosphate]

Molecule: CCCCCCCCCCCCCCCCCC(=O)OC[C@H](COP(=O)([O-])OCC[N+](C)(C)C)OC(=O)CCCC=O [SOV-PC, stearoyl-oxovaleryl phosphatidylcholine]
neointima formation ([2]; after 2 weeks (FIG. 6B)): failed to stimulate neointima formation

Molecule: CCCCCCCCCCCCCCCC(=O)O[C@H](COP(=O)(O)O)C(F)F [XY4, 1,1-difluorodeoxy-(2R)-palmitoyl-sn-glycero-3-phosphate]
neointima formation ([2]; 10 μM, 2-wk period (FIG. 5B)): showed neointima formation

Molecule: CCCCCCCCCCCCCCCC(=O)OC[C@@H](F)COP(=O)(O)O [XY8, 1-palmitoyl-(2R)-fluorodeoxy-sn-glycero-3-phosphate]
neointima formation ([2]; 10 μM, 2-wk period (FIG. 5B)): showed neointima formation

activation of the PPRE-Acox-Rluc reporter [1]: activated the reporter gene
Molecule: CCCCCCCCCCCCCCCCOC[C@@H](O)COP(=O)(O)O [hexadecyl-GP]

activation of the PPRE-Acox-Rluc reporter [1]: activated the reporter gene
Molecule: CCCCCCCCCCCCCCCCCCOC[C@@H](O)COP(=O)(O)O [octadecyl-GP]

Molecule: EGF: epidermal growth factor (NSDSECPLSHDGYCLHDGVCMYIEALDKYACNCVVGYIGERCQYRDLKWWELR; UniProt P01133 971-1023, looked up)
neointima formation ([2]; 50 ng/ml, 2-wk period (FIG. 5B)): failed to induce detectable neointima
neointima formation ([2]; 100 ng/ml (summary)): ineffective in inducing neointima formation

Molecule: LPA 18:1
neointima formation ([2]; 10 μM, 2-wk period (FIG. 5B)): showed neointima formation
extent of neointima development, concentration dependence ([2]; 2 wk after treatment (FIG. 4B)): concentration dependent up to 10 μM
concentration at which neointima development reached statistical significance ([2]; P<0.01, FIG. 4B): 5 µM

Molecule: PDGF
neointima formation [2, 6]: ineffective in inducing neointima formation; also recorded: failed to induce detectable neointima

Molecule: VEGF
neointima formation [2, 6]: ineffective in inducing neointima formation; also recorded: failed to induce detectable neointima

Molecule: dioctylglycerol pyrophosphate [DGPP]
inhibition of lysophosphatidic acid 20:4-induced neointima formation ([2]; FIG. 6A): modest inhibition

effect of added albumin on compound-induced activation of the PPRE-Acox-Rluc reporter gene ([1]; albumin 0.04-4% wt/vol, concentration-dependent (FIG. 7G)): inhibited
concentrations sufficient to cause significant activation of the reporter ([1]; dose-response (FIGS. 6E and F)): high nanomolar concentrations
effect of added rat serum on compound-induced activation of the PPRE-Acox-Rluc reporter gene ([1]; rat serum 1-20% vol/vol, concentration-dependent (FIG. 7H)): inhibited
Molecule: lysophosphatidic acid
